Non-standard residues stand in square brackets, D forms with d. Residues, ends and D or L forms follow the SMILES beside them. *: point of attachment. X6 = c1ccc(C[C@H](N*)c2nc3cccc(-c4ccccc4)c3[nH]2)cc1; X7 = CC[C@H](C)[C@H](N*)c1nc2cccc(-c3ccccc3)c2[nH]1; X3 = CC(C)C[C@H](N*)c1nc2cccc(-c3ccccc3)c2[nH]1; X5 = c1ccc(-c2cccc3nc([C@@H]4CCCN4*)[nH]c23)cc1; X4 = CC(C)[C@H](N*)c1nc2cccc(-c3ccccc3)c2[nH]1; X1 = C[C@H](N*)c1nc2cccc(-c3ccccc3)c2[nH]1; Ala(cPent) = N[C@@H](CC1CCCC1)C(=O)O; Pentanoyl(4-Me) = CC(C)CCC(=O)*; Dap(Me) = CNC[C@H](N)C(=O)O; Dap = NC[C@H](N)C(=O)O; Bz = O=C(c1ccccc1)*
Experiments:
[1] = test system: MOLM-13; assay: cells; settings: Homo sapiens, MOLM-13, 192 h
Description: Anticancer activity against human MOLM-13 cells harbouring MLL-AF9 assessed as inhibition of cell growth treated for 8 days measured by CCK-8 kit method

[2] = test system: KOPN-8; assay: cells; settings: Homo sapiens, KOPN-8, 192 h
Description: Anticancer activity against human KOPN-8 cells harbouring MLL-ENL assessed as inhibition of cell growth treated for 8 days measured by CCK-8 kit method

[3] = molecular target: T1, Protein AF-9 (Homo sapiens, UniProt P42568); assay: Binding affinity to MBP-tagged human recombinant AF9 (487 to 568 residues) incubated for 40 mins by measuring fluorescence polarization by microplate reader method
T1 sequence (P42568 whole entry): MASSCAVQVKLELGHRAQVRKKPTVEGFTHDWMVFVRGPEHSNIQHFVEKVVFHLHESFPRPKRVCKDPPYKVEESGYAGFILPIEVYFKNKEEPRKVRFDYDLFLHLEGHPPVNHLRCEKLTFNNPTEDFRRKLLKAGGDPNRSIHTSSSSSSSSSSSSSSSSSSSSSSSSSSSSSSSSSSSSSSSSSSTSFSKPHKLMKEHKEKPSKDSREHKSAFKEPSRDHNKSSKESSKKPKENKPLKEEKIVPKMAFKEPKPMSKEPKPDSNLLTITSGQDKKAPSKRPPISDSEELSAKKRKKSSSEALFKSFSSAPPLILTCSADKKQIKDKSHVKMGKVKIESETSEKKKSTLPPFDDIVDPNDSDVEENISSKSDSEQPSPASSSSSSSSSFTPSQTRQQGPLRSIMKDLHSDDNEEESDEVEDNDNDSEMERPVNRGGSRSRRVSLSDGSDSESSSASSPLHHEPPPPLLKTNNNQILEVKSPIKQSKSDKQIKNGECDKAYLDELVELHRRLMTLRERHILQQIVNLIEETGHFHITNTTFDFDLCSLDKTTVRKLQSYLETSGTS

[4] = Apparent permeability across apical to basolateral side in human Caco-2 cells; type: ADME, cell-based
[5] = Stability in human plasma assessed as compound remaining measured upto 1440 mins by HPLC analysis; type: ADME, cell-free; settings: read-out: Stability
[6] = test system: MOLM-13; assay: cells; settings: Homo sapiens, MOLM-13, 120 h
Description: Anticancer activity against human MOLM-13 cells harbouring MLL-AF9 assessed as inhibition of cell growth treated for 5 days measured by CCK-8 kit method

[7] = test system: K562; assay: Anticancer activity against human K562 cells assessed as inhibition of cell growth treated for 8 days measured by CCK-8 kit method; type: functional, cell-based; settings: K562, 192 h
[8] = test system: MOLM-13; assay: cells; settings: Homo sapiens, MOLM-13, 168 h
Description: Anticancer activity against human MOLM-13 cells harbouring MLL-AF9 assessed as inhibition of cell growth treated for 7 days measured by CCK-8 kit method

[9] = test system: MOLM-13; assay: cells; settings: Homo sapiens, MOLM-13, 96 h
Description: Anticancer activity against human MOLM-13 cells harbouring MLL-AF9 assessed as inhibition of cell growth treated for 4 days measured by CCK-8 kit method

[10] = test system: MOLM-13; assay: cells; settings: Homo sapiens, MOLM-13, 216 h
Description: Anticancer activity against human MOLM-13 cells harbouring MLL-AF9 assessed as inhibition of cell growth treated for 9 days measured by CCK-8 kit method

[11] = test system: MV4-11; assay: Anticancer activity against human MV4-11 cells assessed as inhibition of cell growth treated for 8 days measured by CCK-8 kit method; type: functional, cell-based; settings: MV4-11, 192 h
[12] = test system: RS4-11; assay: Anticancer activity against human RS4-11 cells assessed as inhibition of cell growth treated for 8 days measured by CCK-8 kit method; type: functional, cell-based; settings: RS4-11, 192 h
[13] = test system: MOLM-13; assay: cells; settings: Homo sapiens, MOLM-13, 144 h
Description: Anticancer activity against human MOLM-13 cells harbouring MLL-AF9 assessed as inhibition of cell growth treated for 6 days measured by CCK-8 kit method

IC50 [1]	IC50 [2]	Ki [3]	Compound	further results
500 nM	680 nM	22 nM	CC(=O)N[C@@H](CC(C)C)C(=O)N1CCC[C@H]1C(=O)N[C@H](C(=O)N[C@@H](CN)C(=O)N[C@@H](CC1CCCC1)C(=O)N1CCC[C@H]1c1nc2cccc(-c3ccccc3)c2[nH]1)C(C)C (Ac-LPV[Dap][Ala(cPent)]-X5)	
		160 nM	CC[C@H](C)[C@H](NC(=O)[C@H](CO)NC(=O)[C@@H](NC(=O)[C@@H]1CCCN1C(=O)[C@H](CC(C)C)NC(C)=O)C(C)C)C(=O)N1CCC[C@H]1C(=O)N[C@@H](CC(C)C)C(=O)N(C)C (HELM PEPTIDE1{[ac].L.P.V.S.I.P.L.[CN(C)[*:1]]}$$$$V2.0)	
740 nM	670 nM	32 nM	CNC[C@H](NC(=O)[C@@H](NC(=O)[C@@H]1CCCN1C(=O)c1ccccc1)C(C)C)C(=O)N[C@@H](CC1CCCC1)C(=O)N[C@@H](C)c1nc2cccc(-c3ccccc3)c2[nH]1 (Bz-PV[Dap(Me)][Ala(cPent)]-X1)	
610 nM	480 nM	23 nM	CC[C@H](C)[C@H](NC(=O)[C@H](CC1CCCC1)NC(=O)[C@H](CN)NC(=O)[C@@H](NC(=O)[C@@H]1CCCN1C(=O)[C@H](CC(C)C)NC(C)=O)C(C)C)c1nc2cccc(-c3ccccc3)c2[nH]1 (Ac-LPV[Dap][Ala(cPent)]-X7)	
460 nM	440 nM	17 nM	CC(=O)N[C@@H](CC(C)C)C(=O)N1CCC[C@H]1C(=O)N[C@H](C(=O)N[C@@H](CN)C(=O)N[C@@H](CC1CCCC1)C(=O)N[C@@H](C)c1nc2cccc(-c3ccccc3)c2[nH]1)C(C)C (Ac-LPV[Dap][Ala(cPent)]-X1)	
			CC(C)(C)NCC(O)COc1cccc2c1CC(O)C(O)C2 (stereo not drawn) [NADOLOL]	Papp A→B [4]: 0.13 ×10⁻⁶ cm/s; remaining at 24 h [5]: 97.1%
440 nM	410 nM	13 nM	CC(=O)N[C@@H](CC(C)C)C(=O)N1CCC[C@H]1C(=O)N[C@H](C(=O)N[C@@H](CN)C(=O)N[C@@H](CC1CCCC1)C(=O)N[C@@H](Cc1ccccc1)c1nc2cccc(-c3ccccc3)c2[nH]1)C(C)C (Ac-LPV[Dap][Ala(cPent)]-X6)	
490 nM	430 nM	19 nM	CC(=O)N[C@@H](CC(C)C)C(=O)N1CCC[C@H]1C(=O)N[C@H](C(=O)N[C@@H](CN)C(=O)N[C@@H](CC1CCCC1)C(=O)N[C@@H](CC(C)C)c1nc2cccc(-c3ccccc3)c2[nH]1)C(C)C (Ac-LPV[Dap][Ala(cPent)]-X3)	
640 nM	750 nM	29 nM	CC(=O)N[C@@H](CC(C)C)C(=O)N1CCC[C@H]1C(=O)N[C@H](C(=O)N[C@@H](CN)C(=O)N[C@@H](CC1CCCC1)C(=O)N[C@H](c1nc2cccc(-c3ccccc3)c2[nH]1)C(C)C)C(C)C (Ac-LPV[Dap][Ala(cPent)]-X4)	
310 nM	330 nM	15 nM	CC(C)[C@H](NC(=O)[C@@H]1CCCN1C(=O)c1ccccc1)C(=O)N[C@@H](CN)C(=O)N[C@@H](CC1CCCC1)C(=O)N[C@@H](C)c1nc2cccc(-c3ccccc3)c2[nH]1 (Bz-PV[Dap][Ala(cPent)]-X1)	
			CC(C)NCC(O)COc1cccc2ccccc12 (stereo not drawn) [PROPRANOLOL]	Papp A→B [4]: 18.5 ×10⁻⁶ cm/s; remaining at 24 h [5]: 72.9%
		160 nM	CC[C@@H](C)[C@H](NC(=O)[C@@H]1CCCN1C(=O)[C@H](CC(C)C)NC(C)=O)C(=O)N[C@@H](CO)C(=O)N[C@H](C(=O)N1CCC[C@H]1C(=O)N[C@@H](CC(C)C)C(=O)N(C)C)[C@@H](C)CC	

Compound	IC50 [1]	IC50 [2]	Ki [3]	further results
CC(C)CCC(=O)N1CCC[C@H]1C(=O)N[C@H](C(=O)N[C@@H](CN)C(=O)N[C@@H](CC1CCCC1)C(=O)N[C@@H](C)c1nc2cccc(-c3ccccc3)c2[nH]1)C(C)C ({Pentanoyl(4-Me)}-PV[Dap][Ala(cPent)]-X1)	150 nM	190 nM	9 nM	IC50 [6]: 932 nM; IC50 [7]: 33000 nM; IC50 [8]: 257 nM; IC50 [9]: 1290 nM; IC50 [10]: 94 nM; IC50 [11]: 140 nM; Papp A→B [4]: 1.82 ×10⁻⁶ cm/s; IC50 [12]: 380 nM; remaining at 24 h [5]: 83%; IC50 [13]: 589 nM

Reference: ChEMBL document CHEMBL5154930, “Design, Synthesis, and Biological Evaluations of DOT1L Peptide Mimetics Targeting the Protein-Protein Interactions between DOT1L and MLL-AF9/MLL-ENL” (J Med Chem, 2022)
